According to patent publication US10179801B2, “Truncated LYP-1 peptides and methods and compositions using truncated LYP-1 peptides” (SANFORD-BURNHAM MEDICAL RESEARCH INSTITUTE, priority 2011, dated 2019):
“Also recorded” adds a separate entry of the source. Ends that are not written are not given here. * marks the point of attachment. Biotin = O=C1N[C@H]2[C@H](CS[C@H]2CCCCC(=O)*)N1

How the values were obtained:
tumor [1] = conditions: CGKRK by itself; cited from earlier work
NRP1 = molecular target: T1, NRP1 (Homo sapiens, UniProt O14786); experiment: Phage binding to DU145 cells with ligand-blocking anti-NRP1; type: cell-based; conditions: 4° C.
T1 construct: endogenous in cells; host or cells: DU145 prostate carcinoma cells
Procedure: To measure phage binding on cells, 2×10^5 suspended cells were incubated with 7×10^8 pfu/mL of T7 phage in DMEM/BSA 1% for 1 h at 4° C. Ligand-blocking antibodies or control goat IgG isotype (10 μg/sample) were added 30 min prior to phage incubation. The cells were washed four times with DMEM/BSA 1%, and lysed with lysogeny broth containing 1% Nonidet P-40 (LB/NP40) before phage titration.
The role of the CendR motif in the LyP-1 peptide was investigated by testing the binding of phage displaying the predicted active CendR fragment CGNKRTR (tLyP-1 for truncated LyP-1; SEQ ID NO:4) and other truncated forms of LyP-1 to cultured tumor cells. DU145 prostate carcinoma cells were used, which express NRP1, but not NRP2 (FIG. 6). As these peptides could have other receptors on the DU145 cells, inhibition of cell binding by a function-blocking anti-NRP1 antibody was used as an indicator of NRP1 dependence of phage binding. […] This is supported by recent modeling studies showing that glycine-containing peptides (G7 (SEQ ID NO:104), G3RG3 (SEQ ID NO:105), and G4RG2 SEQ ID NO:106) were able to dock in NRP1 binding pocket without major deformation of the receptor structure (Haspel et al, 2011).

p32 [2] = molecular target: T2, p32 (Mus musculus, UniProt O35658); experiment: Affinity chromatography of 4T1 breast tumor extracts on tLyP-1; type: binding; conditions: data not shown
T2 construct: from tissue; host or cells: 4T1 breast tumor extracts (orthotopic tumors in BALB/c mice)
T2 sequence (O35658 71-278): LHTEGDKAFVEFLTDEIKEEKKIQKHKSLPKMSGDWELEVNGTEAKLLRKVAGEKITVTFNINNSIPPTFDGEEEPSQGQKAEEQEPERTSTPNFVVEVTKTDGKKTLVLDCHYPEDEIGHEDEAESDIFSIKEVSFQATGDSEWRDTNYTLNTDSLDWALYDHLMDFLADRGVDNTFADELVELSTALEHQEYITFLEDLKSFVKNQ
Description: (§1) The MDA-MB-435 cells express the cell surface LyP-1 primary receptor p32 (Fogal et al, 2008). To test whether internalization of tLyP-1 and LyP-1 could occur through this receptor, tLyP-1 capacity to bind p32 was explored. […] Thus, only the intact LyP-1 peptide binds to p32.

tumor [3] = experiment: Tumor penetration of a compound co-administered with tLyP-1; type: in vivo; conditions: tLyP-1 peptide injected together with CGKRK; confocal microscopy
Description: Thus, tLyP-1 can also induce penetration of a co-administered compound.

p32 [4] = molecular target: T3, p32 (Homo sapiens, UniProt Q07021); experiment: ELISA-based saturation assay of FAM-peptides on purified p32; type: binding; conditions: wells coated with 3 μg/mL p32, 37° C. 1 h
T3 sequence (Q07021 74-282): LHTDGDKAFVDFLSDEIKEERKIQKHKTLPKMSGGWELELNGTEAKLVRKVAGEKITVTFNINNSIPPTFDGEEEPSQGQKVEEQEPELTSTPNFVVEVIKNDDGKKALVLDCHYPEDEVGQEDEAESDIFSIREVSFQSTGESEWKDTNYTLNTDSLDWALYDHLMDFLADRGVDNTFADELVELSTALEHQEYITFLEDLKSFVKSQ
Procedure: Binding of FAM-tLyP-1 and FAM-LyP-1 to p32 was measured by an ELISA-based assay. Microtiter wells coated with 3 μg/mL of purified p32 (Fogal et al, 2008) were incubated with increasing concentrations of FAM-peptides at 37° C. for 1 h. After washing with cold PBS added with 0.01% Tween 20 and 0.2 M NaCl, fluorescence was read at 495 nm.
as §1

4T1 tumors = experiment: FAM-peptide homing in 4T1 tumor bearing mice; type: in vivo, BALB/c mice; conditions: i.v., 1 h circulation
Procedure: To produce 4T1 tumors, BALB/c mice were orthotopically injected into the mammary fat pad with 10^6 cells suspended in 100 μL of PBS. To produce MDA-MB-435 breast tumors, BALB/C athymic nude mice were orthotopically injected into the mammary fat pad with 2×10^6 cells suspended in 100 μL of PBS.
4T1 tumor bearing BALB/c mice and MDA-MB-435 tumor bearing nude mice were intravenously injected with respectively 150 μL and 100 μL of 1 mM FAM-labeled synthetic peptides. After 1 h circulation, mice were perfused and tissues were collected and observed under UV light (Illuma—tool Bright Light System LT-9900) and processed for immunofluorescence analysis.
150 μl of 1 mM FAM-tLyP-1 or control FAM-[…] was intravenously injected into 4T1 tumor bearing mice. The peptides were allowed to circulate for 1 h and tumors and organs were collected and viewed under UV light. […] FAM-tLyP-1 (100 μl of 1 mM) was intravenously injected into MDA-MB-435 tumor bearing mice. The peptide was allowed to circulate for 45 min, and tumor and organs were collected and viewed under UV light. […] Confocal microscope images were made of the tumor and of normal organs after 1 h of FAM-tLyP-1 circulation in 4T1 tumor bearing mice.

PPC1 cells = experiment: Phage binding and internalization into PPC1 cells (confocal microscopy); type: cell-based, human; conditions: 30 min pre-incubation, increasing concentrations, phage 2 h
Procedure: (§2) Cells were grown on collagen I-coated coverslips (BD Biosciences) for 24-72 h. After 4% PFA fixation, cells were stained with antibodies following the same procedure as for tumor sections, and mounted in DAPI-containing mounting media. For phage binding assay, 10^9 pfu of phage in cell culture medium were incubated for 1-2 h. When neutravidin-peptide inhibitors were used, they were added to the cell medium 30 min prior to phage incubation. Neutravidin alone, at the maximum concentration used in the assay, was used as a control. Cells were examined on a Fluoview 500 confocal microscope (Olympus America).
Phage were detected by staining with anti-T7 phage polyclonal antibody. Nuclei were stained with DAPI. […] Cells were co-stained for NRP1 and nuclei were stained with DAPI. […] Non-conjugated neutravidin was used as a control. Nuclei were stained with DAPI. Cells were analyzed by confocal microscopy.

MDA-MB-435 cells = experiment: Phage binding and internalization into MDA-MB-435 cells (confocal microscopy); type: cell-based, human; conditions: 30 min pre-incubation, increasing concentrations, phage 2 h
Procedure: as §2
Cells were co-stained for NRP2 and nuclei were stained with DAPI. […] Non-conjugated neutravidin was used as a control. Nuclei were stained with DAPI.
Having established that tLyP-1, but not LyP-1, binds to NRP1 and NRP2, but both peptides internalize into tumor cells, it was realized that LyP-1 is converted into tLyP-1 and that the two peptides are taken up by cells through the CendR pathway. The effect of an excess of tLyP-1 on LyP-1 internalization was tested. […] After 30 min pre-incubation with increasing concentrations of neutravidin-tLyP-1 peptide, MDA-MB-435 cells were incubated with LyP-1 phage for 2 h. Phage were stained with anti-T7 antibody. Nuclei were stained with DAPI.

T1 sequence (O14786 22-923): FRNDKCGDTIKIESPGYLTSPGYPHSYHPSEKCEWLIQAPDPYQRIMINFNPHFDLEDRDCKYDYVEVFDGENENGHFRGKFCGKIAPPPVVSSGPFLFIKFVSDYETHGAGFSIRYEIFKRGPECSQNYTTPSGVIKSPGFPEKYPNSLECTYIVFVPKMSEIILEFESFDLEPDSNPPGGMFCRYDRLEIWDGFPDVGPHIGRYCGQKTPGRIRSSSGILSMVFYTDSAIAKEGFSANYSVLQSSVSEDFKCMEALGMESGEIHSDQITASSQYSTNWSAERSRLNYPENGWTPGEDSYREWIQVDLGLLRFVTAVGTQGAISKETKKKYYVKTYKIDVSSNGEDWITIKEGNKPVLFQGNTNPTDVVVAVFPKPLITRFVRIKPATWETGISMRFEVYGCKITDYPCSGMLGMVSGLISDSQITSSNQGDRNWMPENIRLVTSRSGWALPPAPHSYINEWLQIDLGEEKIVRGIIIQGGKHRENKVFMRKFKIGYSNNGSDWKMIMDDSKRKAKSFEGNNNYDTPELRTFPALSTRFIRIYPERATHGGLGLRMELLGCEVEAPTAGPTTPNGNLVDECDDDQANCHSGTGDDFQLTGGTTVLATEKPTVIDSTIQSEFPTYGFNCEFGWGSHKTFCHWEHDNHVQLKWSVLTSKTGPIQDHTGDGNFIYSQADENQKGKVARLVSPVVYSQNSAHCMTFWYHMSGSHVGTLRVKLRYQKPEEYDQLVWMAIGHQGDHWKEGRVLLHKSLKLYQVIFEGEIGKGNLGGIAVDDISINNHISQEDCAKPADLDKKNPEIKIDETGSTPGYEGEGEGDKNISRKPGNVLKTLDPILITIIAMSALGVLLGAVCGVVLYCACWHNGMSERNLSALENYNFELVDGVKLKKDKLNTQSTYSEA

CGKRK [tumor-homing peptide]
Exit from blood vessels of peptide alone (tumor [1]): unable to get out of blood vessels by itself

CGNK
Effect of ligand-blocking anti-NRP1 on phage binding to DU145 cells (in words) (NRP1): not enough to confer significant ability to bind to NRP1

CGNKR
Effect of ligand-blocking anti-NRP1 on phage binding to DU145 cells (in words) (NRP1): not enough to confer significant ability to bind to NRP1

CGNKRTR [tLyP-1, truncated form of LyP-1, in which CendR motif is exposed]
Binding of p32 from tumor extract to peptide affinity matrix (p32 [2]): no binding of p32 | Tumor penetration of co-injected CGKRK (tumor [3]): enhanced tumor penetration of CGKRK | Binding to purified p32 (p32 [4]): low binding

CGNKRTRG
Effect of ligand-blocking anti-NRP1 on phage binding to DU145 cells (in words) (NRP1): mild reproducible decrease

FAM-ARALPSQRSR: control peptide, fluorescein-labeled ARALPSQRSR (not fully specified; fluorescein label)
Tumor fluorescence / accumulation of FAM-peptide (4T1 tumors): did not accumulate in the tumors; also recorded: absence of fluorescence

oligomeric RPARPAR peptide: tetrameric biotinylated RPARPAR peptide conjugated with neutravidin (Biotin-RPARPAR; not fully specified (C-terminus); also: tetrameric, biotinylated, conjugated with neutravidin)
Inhibition of tLyP-1 phage internalization into PPC1 cells (PPC1 cells): inhibited in a dose-dependent manner | Inhibition of tLyP-1 phage binding and internalization in MDA-MB-435 cells (MDA-MB-435 cells): blocked the binding and internalization
